The results in this text go back to US9108937B2 (Merck Sharp & Dohme Corp., priority 2010, dated 2015).

Structures are written as SMILES.

For this experiment, the target named is T1, human mGluR2 (Homo sapiens, UniProt Q14416).
T1 construct: expressed in transfected cells
T1 sequence (Q14416 19-872): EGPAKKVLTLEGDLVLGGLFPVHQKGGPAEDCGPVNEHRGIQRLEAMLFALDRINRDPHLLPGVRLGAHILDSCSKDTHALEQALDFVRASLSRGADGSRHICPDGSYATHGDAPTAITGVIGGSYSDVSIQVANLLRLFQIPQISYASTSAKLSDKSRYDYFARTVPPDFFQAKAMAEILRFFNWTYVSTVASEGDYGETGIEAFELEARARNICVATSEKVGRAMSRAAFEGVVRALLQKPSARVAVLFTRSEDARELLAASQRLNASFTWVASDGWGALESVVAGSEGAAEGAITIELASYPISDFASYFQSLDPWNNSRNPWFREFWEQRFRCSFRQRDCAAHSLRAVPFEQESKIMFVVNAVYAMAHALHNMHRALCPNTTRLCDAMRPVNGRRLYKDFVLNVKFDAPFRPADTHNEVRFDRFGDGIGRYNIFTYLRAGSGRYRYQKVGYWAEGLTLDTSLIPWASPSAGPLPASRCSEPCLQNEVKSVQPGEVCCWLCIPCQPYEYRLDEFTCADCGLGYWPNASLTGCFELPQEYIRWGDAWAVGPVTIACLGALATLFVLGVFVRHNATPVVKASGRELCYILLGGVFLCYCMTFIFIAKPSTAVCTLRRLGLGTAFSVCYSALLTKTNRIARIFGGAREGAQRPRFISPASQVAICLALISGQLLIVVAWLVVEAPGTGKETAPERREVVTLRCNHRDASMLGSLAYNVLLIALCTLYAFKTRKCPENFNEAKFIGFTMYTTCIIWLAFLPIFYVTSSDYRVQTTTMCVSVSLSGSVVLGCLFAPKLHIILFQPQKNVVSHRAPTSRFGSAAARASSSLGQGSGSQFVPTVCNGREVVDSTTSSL
The experiment in a line: FLIPR Ca2+ mobilization assay, potentiation of glutamate response. The experiment is classed as cell-based. Particulars: CHO dhfr- cells expressing human mGluR2 and Gα16; potentiation after EC20 glutamate (900 nM); read-out: Representative FLIPR EC50 Values: IC50. As for the experimental part:
Inhibition constants are determined as follows. The compounds of the present invention may be tested in a fluorescence laser imaging plate reader (FLIPR) based assay. This assay is a common functional assay to monitor Ca^2+ mobilization in whole cells expressing recombinant receptor coupled with a promiscuous G-protein. CHO dhfr− cells stably expressing recombinant human mGluR2 and Gα16 loaded with Fluo-4 AM (Invitrogen, Carlsbad Calif.) are treated with dose responses of compounds and the Ca^2+ response is monitored on a FLIPR384 (Molecular Devices, Sunnydale Calif.) for agonist activity. The potentiation response is monitored after a subsequent addition of an EC20 concentration of glutamate (900 nM). The maximum calcium response at each concentration of compound for agonist or potentiation are plotted as dose responses and the curves are fitted with a four parameters logistic equation giving EC50 and Hill coefficient using the iterative non linear curve fitting software program.
As to `CN1c2cc(-c3ccccc3C#N)ccc2N(CC2CC2)S1(=O)=O` [Compound 1-5, 2-[1-(cyclopropylmethyl)-3-methyl-2,2-dioxido-1,3-dihydro-2,1,3-benzothiadiazol-5-yl]benzonitrile], the EC50 came to 5 nM.
With `Cc1cccnc1-c1ccc2c(c1)N(C)S(=O)(=O)N2CC1CC1` [Compound 3-1, 1-(cyclopropylmethyl)-3-methyl-5-(3-methylpyridin-2-yl)-1,3-dihydro-2,1,3-benzothiadiazole 2,2-dioxide] the figure was 490 nM.
As for `CN1c2cc(-c3cccc(N4CCS(=O)(=O)CC4)c3)ccc2N(CC2CCC2)S1(=O)=O` [Compound 8-1, 1-(cyclobutylmethyl)-5-[3-(1,1-dioxidothiomorpholin-4-yl)phenyl]-3-methyl-1,3-dihydro-2,1,3-benzothiadiazole 2,2-dioxide], the figure is 110 nM.
With `CN1c2cc(-c3cc(Oc4ccnc(C#N)c4)ccc3C#N)ccc2N(CC2CC2(F)F)S1(=O)=O` (stereo not drawn) [Compound 12-4, 4-(4-cyano-3-{1-[(2,2-difluorocyclopropyl)methyl]-3-methyl-2,2-dioxido-1,3-dihydro-2,1,3-benzothiadiazol-5-yl}phenoxy) pyridine-2-carbonitrile] the figure was 0.5 nM; with `CN1c2cc(-c3cc(C(C)(C)O)ccc3F)ccc2N(CC2CC2(F)F)S1(=O)=O` (stereo not drawn) [Compound 17-2], 22 nM; with `CN1c2cc(-c3cc(CN4CCc5onc(O)c5C4)ccc3C#N)ccc2N(CC2CC2(F)F)S1(=O)=O` (stereo not drawn) [Compound 20-1, 2-{1-[(2,2-difluorocyclopropyl)methyl]-3-methyl-2,2-dioxido-1,3-dihydro-2,1,3-benzothiadiazol-5-yl}-4-[(3-hydroxy-6,7-dihydroisoxazolo[4,5-c]pyridin-5(4H)-yl)methyl]benzonitrile], 0.8 nM.
As to `CN1c2cc(-c3cccc(CNc4ncccc4C#N)c3)ccc2N(CC2CC2)S1(=O)=O` [Compound 24-1, 2-({3-[1-(cyclopropylmethyl)-3-methyl-2,2-dioxido-1,3-dihydro-2,1,3-benzothiadiazol-5-yl]benzyl}amino)nicotinonitrile], the EC50 is 130 nM.
With `CN1c2cc(-c3cccc(CN4CCN(S(C)(=O)=O)CC4)n3)ccc2N(CC2CC2(F)F)S1(=O)=O` (stereo not drawn) [Compound 25-2] the figure was 24 nM; with `CN1c2nc(-c3ccccc3C#N)ccc2N(CC(C)(C)C)S1(=O)=O` [Compound 30-2, 2-[1-(2,2-dimethylpropyl)-3-methyl-2,2-dioxido-1,3-dihydro[1,2,5]thiadiazolo[3,4-b]pyridin-5-yl]benzonitrile], 9 nM.
As for `CN1c2nc(-c3ccc(N4CCN(S(C)(=O)=O)CC4)cc3)ccc2N(CC2CC2(F)F)S1(=O)=O` (stereo not drawn) [Compound 32-2, 1-[(2,2-difluorocyclopropyl)methyl]-3-methyl-5-{4-[4-(methylsulfonyl)piperazin-1-yl]phenyl}-1,3-dihydro[1,2,5]thiadiazolo[3,4-b]pyridine 2,2-dioxide], the figure is 140 nM.
Take `CN1c2nc(-c3cc(Oc4ccnc(C#N)c4)ccc3C#N)ccc2N(CC2CC2(F)F)S1(=O)=O` (stereo not drawn) [Compound 36-2, 4-(4-cyano-3-{1-[(2,2-difluorocyclopropyl)methyl]-3-methyl-2,2-dioxido-1,3-dihydro[1,2,5]thiadiazolo[3,4-b]pyridin-5-yl}phenoxy)pyridine-2-carbonitrile]: the EC50 was 3 nM.
With `Cc1ccc(C(C)(C)O)cc1-c1ccc2c(n1)N(C)S(=O)(=O)N2CC1CC1` [Compound 38-3, 2-{3-[1-(cyclopropylmethyl)-3-methyl-2,2-dioxido-1,3-dihydro [1,2,5]thiadiazolo[3,4-b]pyridin-5-yl]-4-methylphenyl}propan-2-ol] the figure was 25 nM; with `CC(=O)N1CCN(Cc2ccc(C)c(-c3ccc4c(n3)N(C)S(=O)(=O)N4CC3CC3(F)F)c2)CC1` (stereo not drawn) [Compound 39-2, 1-[4-(3-{1-[(2,2-difluorocyclopropyl)methyl]-3-methyl-2,2-dioxido-1,3-dihydro[1,2,5]thiadiazolo[3,4-b]pyridin-5-yl}-4-methylbenzyl)piperazin-1-yl]ethanone], 11 nM; with `CN1c2nc(-c3cccc(CN4CCS(=O)(=O)CC4)c3F)ccc2N(CC2CC2(F)F)S1(=O)=O` (stereo not drawn) [Compound 42-3, 1-[(2,2-difluorocyclopropyl)methyl]-5-{3-[(1,1-dioxidothiomorpholin-4-yl)methyl]-2-fluorophenyl}-3-methyl-1,3-dihydro [1,2,5]thiadiazolo[3,4-b]pyridine 2,2-dioxide], 9 nM.
With `Cc1ccc(CN2CCN(C(=O)[C@@H](C)O)CC2)cc1-c1ccc2c(n1)N(C)S(=O)(=O)N2CC1CC1(F)F` (stereo partly drawn) [Compound 43-3, (2R)-1-[4-(3-{1-[(2,2-difluorocyclopropyl)methyl]-3-methyl-2,2-dioxido-1,3-dihydro[1,2,5]thiadiazolo[3,4-b]pyridin-5-yl}-4-methylbenzyl)piperazin-1-yl]-2-hydroxypropan-1-one] the figure was 8 nM.
